Measurements as given in US20250312320A1, “METHOD AND TREATMENT FOR OSTEOARTHRITIS AND DISEASES OF CHONDROCYTE HYPERTROPHY” (The Royal Veterinary College, priority 2022, published 2025).
Entries after “also recorded” stand apart in the source; their conditions may differ.

Columns and labels:
[1] = tested on: primary equine chondrocytes; assay: Primary equine chondrocyte micromass treated with BI1347: gene expression; assay type: cell-based; details: 1 μM
Procedure: Articular cartilage was isolated, placed into a petri dish containing phosphate buffer saline (PBS) supplemented with 2% Ab/Am (PBS-Ab/Am) and transferred to a laminar flow hood for processing. Cartilage shavings were minced using a sterile scalpel to approximately 1 mm^3 and washed in fresh PBS-Ab/Am by centrifugation at 500×g for 10 minutes. Supernatant was removed and the cartilage pellet resuspended in 5 ml TrypLE™ (Gibco) before incubation at 37° C. for 10 minutes with gentle agitation. Dissociated cartilage fragments were pelleted and washed to remove excess TrypLE and resuspended in DMEM-complete media (DMEM/F12 (Gibco), 1% Ab/Am, 10% FBS) supplemented with 2 mg/ml Collagenase Type II and incubated overnight at 37° C. with gentle agitation. The cartilage digest was pelleted, washed and subsequently resuspended in DMEM-complete. Released cells were counted using a haematocytometer and seeded at 10,000 cells per cm^2. The cultures were incubated at 37° C., 5% CO2 in a humidified incubator for 2 days before refreshing DMEM-complete every 2 days until confluency. For differentiation experiments, primary chondrocytes were differentiated in DMEM/F12 containing 2% FBS, 1% Ab/Am, 1× Insulin-Transferrin-Selenium premix, 10 ng/ml TGFβ3 (primary chondrocyte differentiation media).
For primary equine chondrocytes, chondrocytes were seeded in 10 μl micromasses as above and differentiated for 14 days in presence of primary chondrocyte differentiation media supplemented with 1 μM BI1347 before processing for gene expression analysis as described above.

MC3T3 cells = assay: MC3T3 cell viability assay (resazurin); assay type: cell-based; details: 1 μM, day 7 and 14
Procedure: To determine potential toxicity of CDK8i on MC3T3 cells, a cell viability assay was carried out on day 7 and 14 of MC3T3 cells treated with 1 μM BI1347. Briefly, culture media was replaced with differentiation media containing 0.2 mM resazurin dye and incubated for 2 hours at 37° C. before measurement at 570 nm normalized to 600 nm.

[2] = tested on: THP-1 derived macrophages; assay: LPS stimulated THP-1 derived macrophages: gene expression; assay type: cell-based, human; details: 1 μM, 1 h pretreatment + 24 h LPS
Procedure: (§1) THP-1 monocytes were differentiated into macrophages via treatment with 50 ng/ml phorbol 12-myristate 13-acetate (PMA) in THP-1 growth media (RPMI-1640, 100 μg/ml Primocin, 10% FBS, 0.05 mM β-mercaptoethanol) for 48 hours. Macrophages were then washed twice to remove PMA containing media before a 1-hour pretreatment with 1 μM BI1347 or 100 nM MSC2530818. Inflammatory stimulation was then initiated via the addition of lug/ml lipopolysaccharide (LPS) for 24 hours in the presence of 1 μM BI1347 or 100 nM MSC2530818. Gene expression analysis was subsequently carried out as previously outlined. For MSC2530818 treated/LPS stimulated cells, media supernatant was used for IL-1β cytokine analysis quantification via ELISA (PeproTech, ABTS Human IL-1β development ELISA) as per manufacturer instructions.

ATDC5 micromass = ATDC5 micromass treated with CDK8i: qPCR gene expression and morphology; assay type: cell-based, mouse; details: 1 μM
Procedure: ATDC5 and primary equine chondrocytes were cultured in micromasses and treated with a CDK8i to determine effects on gene expression during chondrogenic differentiation.
In more detail, for ATDC5 cells, 2.7×10^5 cells were seeded in a 10 μl droplet onto a 24-well plate and cultured in differentiation media supplemented with CDK8i for 7 days before switching to mineralisation media supplemented with CDK8i for a further 7 days to induce hypertrophic differentiation as previous. The CDK8i was either 1 μM BI1347 or 100 nM MSC2530818.
On days 7 and 14 DMSO control and BI1347/MSC2530818 treated ATDC5 micromasses were lysed in triplicate and RNA extracted using Reliaprep RNA miniprep system (Promega) before cDNA synthesis using High-capacity reverse transcriptase kit (Applied BioScience). Quantitative PCR (qPCR) analysis was carried out using 10 ng cDNA in iTaq mastermix (BioRad) according to manufacturer's instructions. Primer sequences for qPCR reactions are shown in Table 1. ΔCt values of genes expressed were normalised to reference housekeeper genes and subsequently used to generate relative expression. Significance was observed by conducting unpaired T-test with Welch correction.

[3] = tested on: hypertrophic ATDC5 micromasses; assay: Metabolic analysis (MitoStress Test, Seahorse XF) of hypertrophic ATDC5 micromasses; assay type: cell-based, mouse; details: 1 μM
Procedure: This higher dependency on glycolysis for energy production is linked to enhanced catabolic processes, therefore reducing glycolysis has been proposed as a therapeutic approach for OA (Tan et al. (2022) “A new strategy for osteoarthritis therapy: Inhibition of glycolysis”. Front Pharmacol. 2022 Nov. 10; 13:1057229. doi: 10.3389/fphar.2022.1057229.). To assess energy metabolism of hypertrophic ATDC5 cells in the presence of CDK8i, 2 μl micromasses were seeded onto a Seahorse XF HS Miniplate (Agilent). Micromasses were differentiated in the presence of MSC2530818 as previously described for 1 week before switching to mineralisation media containing MSC2530818 for 24 hours. The MitoStress Test (Agilent) was carried out on hypertrophic micromasses using 1.5 μM oligomycin, 0.5 μM […] and 0.25 μM FCCP which measured real-time extracellular acidification and oxygen consumption rate. Analysis via the Agilent Seahorse Analytics platform basal oxygen consumption rate and glycolysis measurements.

[4] = tested on: THP-1 derived macrophages; assay: LPS stimulated THP-1 derived macrophages: IL-1β ELISA of supernatant; assay type: cell-based, human; details: 100 nM, LPS 24 hrs
Procedure: as §1

| Compound | ACAN expression, increase vs DMSO ([1]; day 14) [fold] | RUNX2 expression vs DMSO ([1]; day 14) | SOX9 expression, increase vs DMSO ([1]; day 14 (N.S)) [fold] | COL2A1 expression, increase vs DMSO ([1]; day 14, N=1) [fold] | cell viability (resazurin) vs DMSO (MC3T3 cells) | NF-κB gene expression, decrease vs DMSO [2] [fold] | TLR4 gene expression, decrease vs DMSO [2] [fold] | micromass morphology (ATDC5 micromass; 14 days, vs DMSO) | COL2A1 expression, increase vs DMSO (ATDC5 micromass; day 7) [fold] | Mediator complex gene expression vs DMSO (ATDC5 micromass; day 7) | ACAN expression, increase vs DMSO (ATDC5 micromass; day 7 (N.S)) [fold] | ACAN expression, increase vs DMSO (ATDC5 micromass; day 14) [fold] | COL10A1 expression, decrease vs DMSO (ATDC5 micromass; day 14) [fold] | decrease in total basal glycolysis (inferred from OCR/ECAR measurements) vs DMSO [3] [%] | extracellular acidification rate (ECAR) vs DMSO ([3]; across the time course measured) | total basal oxygen consumption rate (OCR) vs DMSO ([3]; p=0.5085) | IL1β production / secretion into culture media, reduction [4] [fold] |
| --- | --- | --- | --- | --- | --- | --- | --- | --- | --- | --- | --- | --- | --- | --- | --- | --- | --- |
| CN(C)C(=O)Cn1cc(-c2ccc(-c3cncc4ccccc34)cc2)cn1 [BI1347] | 14 | identical; also recorded: no increase | 1.5 | 9 | no difference in absorbance; also recorded: no toxicity observed | 6 | 9 | visible increase in extracellular matrix production; also recorded: visibly larger, more rounded and resembled the appearance of healthy cartilage | 4.7 | robustly downregulated; also recorded: overall reduction | 6 | 6 | 5.3 | – | – | – | – |
| Cc1n[nH]c2ncc(C(=O)N3CCC[C@H]3c3ccc(Cl)cc3)cc12 [MSC2530818] | – | – | – | – | – | – | – | – | – | – | – | – | – | 37 | lower than DMSO control | no significant difference | 1.5 |
